Here are results for 10 compounds from ChEMBL document CHEMBL3085719, “Structure-based design and synthesis of potent benzothiazole inhibitors of interleukin-2 inducible T cell kinase (ITK)” (Bioorg Med Chem Lett, 2013).

A short description of data set [1]: Lipophilicity, log D of the compound at pH 7.4. As to conditions: buffer.
Data set [2] is described as follows: Aqueous solubility of the compound at pH 7.4. The format is physicochemical. As to conditions: buffer.
Data set [3] has as its target Tyrosine-protein kinase Lck (Homo sapiens, UniProt P06239). Kind of data set: Inhibition of LCK (unknown origin).
Data set [4] has as its target T1, Tyrosine-protein kinase ITK/TSK (Homo sapiens, UniProt Q08881).
T1 sequence (Q08881 whole entry): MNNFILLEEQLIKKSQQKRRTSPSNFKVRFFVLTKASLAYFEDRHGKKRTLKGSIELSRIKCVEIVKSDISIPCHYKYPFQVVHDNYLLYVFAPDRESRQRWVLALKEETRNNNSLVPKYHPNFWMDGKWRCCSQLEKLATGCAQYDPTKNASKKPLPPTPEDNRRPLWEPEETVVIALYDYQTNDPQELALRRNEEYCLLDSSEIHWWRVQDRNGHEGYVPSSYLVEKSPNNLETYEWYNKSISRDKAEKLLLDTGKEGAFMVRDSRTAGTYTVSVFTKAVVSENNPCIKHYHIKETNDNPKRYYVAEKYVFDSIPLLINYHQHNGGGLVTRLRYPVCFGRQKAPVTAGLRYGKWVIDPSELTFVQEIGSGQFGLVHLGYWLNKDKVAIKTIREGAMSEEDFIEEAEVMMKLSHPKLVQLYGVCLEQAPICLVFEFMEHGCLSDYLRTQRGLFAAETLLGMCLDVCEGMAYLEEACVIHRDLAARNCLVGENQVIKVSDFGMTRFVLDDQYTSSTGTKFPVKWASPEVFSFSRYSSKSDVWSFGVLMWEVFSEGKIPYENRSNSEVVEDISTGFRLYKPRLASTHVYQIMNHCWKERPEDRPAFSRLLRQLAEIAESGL
Kind of data set: Inhibition of ITK in human Jurkat cells assessed as inhibition of PLC-gamma1 phosphorylation by immuno-detection assay. The format is cell-based.

In data set [5] the target is T1, Tyrosine-protein kinase ITK/TSK. Kind of data set: Inhibition of full length GST-tagged ITK (unknown origin) using Ac-EFPIYDFLPAKKK-NH2 as substrate after 35 mins by LC/MS analysis.
Data set [6] deals with RAF proto-oncogene serine/threonine-protein kinase (Homo sapiens), P04049 [Y340D,Y341D]. The data set can be described thus: Inhibition of RAF Y340D/Y341D double mutant (unknown origin) at 1 uM relative to control.
Data set [7] deals with T2, Muscle, skeletal receptor tyrosine-protein kinase (Homo sapiens) (UniProt O15146).
T2 sequence (whole entry): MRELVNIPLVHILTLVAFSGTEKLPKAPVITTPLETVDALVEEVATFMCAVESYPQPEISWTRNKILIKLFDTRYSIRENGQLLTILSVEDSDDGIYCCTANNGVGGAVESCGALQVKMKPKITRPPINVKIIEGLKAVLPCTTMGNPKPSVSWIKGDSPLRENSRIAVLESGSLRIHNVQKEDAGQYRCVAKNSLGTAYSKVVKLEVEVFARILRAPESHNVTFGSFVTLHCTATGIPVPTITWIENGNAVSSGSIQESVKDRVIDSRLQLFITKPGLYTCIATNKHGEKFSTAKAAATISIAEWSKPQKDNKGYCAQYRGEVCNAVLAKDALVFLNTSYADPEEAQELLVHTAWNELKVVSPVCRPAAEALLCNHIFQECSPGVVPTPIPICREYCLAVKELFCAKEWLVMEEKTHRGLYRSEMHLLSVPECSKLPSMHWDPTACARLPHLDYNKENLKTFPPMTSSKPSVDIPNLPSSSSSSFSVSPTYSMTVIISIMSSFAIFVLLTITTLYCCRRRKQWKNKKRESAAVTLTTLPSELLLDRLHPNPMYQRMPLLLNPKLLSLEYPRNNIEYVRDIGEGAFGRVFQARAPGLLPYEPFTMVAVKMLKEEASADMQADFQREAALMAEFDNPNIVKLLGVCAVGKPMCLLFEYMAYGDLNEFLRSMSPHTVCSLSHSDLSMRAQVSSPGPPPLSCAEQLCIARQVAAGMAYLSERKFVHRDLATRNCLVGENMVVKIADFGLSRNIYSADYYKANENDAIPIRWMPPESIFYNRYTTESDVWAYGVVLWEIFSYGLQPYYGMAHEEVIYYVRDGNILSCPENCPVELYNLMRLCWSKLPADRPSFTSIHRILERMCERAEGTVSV
Kind of data set: Inhibition of MUSK (unknown origin) at 1 uM relative to control.

For data set [8], the target named is Tyrosine-protein kinase ABL1 (Homo sapiens) (UniProt P00519). The data set can be described thus: Inhibition of ABL (unknown origin) at 1 uM relative to control.
Data set [9] in a line: Volume of distribution at steady state in rat at 1 mg/kg, iv. Set-up: dose 1 mg/kg, route intravenous. The format is ADME, organism-based. As to conditions: in vivo, read-out: Vdss.
For data set [10], the target named is Tyrosine-protein kinase Yes (Homo sapiens) (UniProt P07947). The data set can be described thus: Inhibition of YES (unknown origin) at 0.1 uM relative to control.
Data set [11] has as its target T3, Tyrosine-protein kinase TXK (Homo sapiens) (UniProt P42681).
T3 sequence (whole entry): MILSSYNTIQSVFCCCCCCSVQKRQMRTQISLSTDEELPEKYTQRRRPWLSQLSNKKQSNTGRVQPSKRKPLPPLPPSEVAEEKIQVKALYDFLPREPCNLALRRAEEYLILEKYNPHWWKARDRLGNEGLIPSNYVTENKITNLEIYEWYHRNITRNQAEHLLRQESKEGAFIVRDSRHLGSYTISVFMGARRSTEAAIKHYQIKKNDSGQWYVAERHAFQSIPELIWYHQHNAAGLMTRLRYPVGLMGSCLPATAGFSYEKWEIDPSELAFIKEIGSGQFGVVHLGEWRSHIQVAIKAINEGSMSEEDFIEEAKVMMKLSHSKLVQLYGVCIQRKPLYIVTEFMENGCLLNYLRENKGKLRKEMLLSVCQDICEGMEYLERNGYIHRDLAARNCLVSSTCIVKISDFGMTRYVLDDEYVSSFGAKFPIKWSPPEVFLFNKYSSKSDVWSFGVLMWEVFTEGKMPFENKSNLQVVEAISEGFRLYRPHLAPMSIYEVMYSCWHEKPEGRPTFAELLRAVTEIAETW
Kind of data set: Inhibition of TXK (unknown origin) at 0.1 uM relative to control.

For data set [12], the target named is Serine/threonine-protein kinase PAK 4 (Homo sapiens) (UniProt O96013). Kind of data set: Inhibition of PAK4 (unknown origin) at 0.1 uM relative to control.
The target in data set [13] is Receptor-type tyrosine-protein kinase FLT3 (Homo sapiens) (UniProt P36888). The data set can be described thus: Inhibition of FLT3 (unknown origin) at 0.1 uM relative to control.
The target in data set [14] is Vascular endothelial growth factor receptor 2 (Homo sapiens) (UniProt P35968). Kind of data set: Inhibition of KDR (unknown origin) at 0.1 uM relative to control.
In data set [15] the target is Casein kinase I isoform alpha (Homo sapiens) (UniProt P48729). The data set can be described thus: Inhibition of CK1alpha (unknown origin) at 0.1 uM relative to control.
For data set [16], the target named is Cyclin-dependent kinase 2 (Homo sapiens) (UniProt P24941). The data set can be described thus: Inhibition of CDK2 (unknown origin) at 0.1 uM relative to control.
The target of data set [17] is Tyrosine-protein kinase ABL1 (Homo sapiens) (UniProt P00519). The data set can be described thus: Inhibition of ABL (unknown origin) at 0.1 uM relative to control.
A short description of data set [18]: Half life in rat at 5 mg/kg, po. As to conditions: in vivo. The format is ADME, organism-based. On the set-up: dose 5 mg/kg, route oral.
A short description of data set [19]: Half life in rat at 1 mg/kg, iv. It is filed as ADME, organism-based. On the set-up: dose 1 mg/kg, route intravenous. To be noted: in vivo.
Data set [20] in a line: Clearance in rat at 1 mg/kg, iv. To be noted: in vivo. It is filed as ADME, organism-based. On the set-up: dose 1 mg/kg, route intravenous.
Data set [21] can be described thus: Oral bioavailability in rat at 5 mg/kg. To be noted: in vivo. The format is ADME, organism-based.
Data set [22] can be described thus: AUC (last) in rat at 5 mg/kg, po. It is filed as ADME, organism-based. Set-up: time 0 - last, dose 5 mg/kg, route oral. To be noted: plasma.
The nature of data set [23]: AUC (last) in rat at 1 mg/kg, iv. The format is ADME, organism-based. Set-up: time 0 - last, dose 1 mg/kg, route intravenous. To be noted: plasma.

Converted amounts (≈) assume the structure as drawn. Some results are limits rather than exact numbers.

Tyrosine-protein kinase ABL1 (Homo sapiens), sequence (P00519 whole entry): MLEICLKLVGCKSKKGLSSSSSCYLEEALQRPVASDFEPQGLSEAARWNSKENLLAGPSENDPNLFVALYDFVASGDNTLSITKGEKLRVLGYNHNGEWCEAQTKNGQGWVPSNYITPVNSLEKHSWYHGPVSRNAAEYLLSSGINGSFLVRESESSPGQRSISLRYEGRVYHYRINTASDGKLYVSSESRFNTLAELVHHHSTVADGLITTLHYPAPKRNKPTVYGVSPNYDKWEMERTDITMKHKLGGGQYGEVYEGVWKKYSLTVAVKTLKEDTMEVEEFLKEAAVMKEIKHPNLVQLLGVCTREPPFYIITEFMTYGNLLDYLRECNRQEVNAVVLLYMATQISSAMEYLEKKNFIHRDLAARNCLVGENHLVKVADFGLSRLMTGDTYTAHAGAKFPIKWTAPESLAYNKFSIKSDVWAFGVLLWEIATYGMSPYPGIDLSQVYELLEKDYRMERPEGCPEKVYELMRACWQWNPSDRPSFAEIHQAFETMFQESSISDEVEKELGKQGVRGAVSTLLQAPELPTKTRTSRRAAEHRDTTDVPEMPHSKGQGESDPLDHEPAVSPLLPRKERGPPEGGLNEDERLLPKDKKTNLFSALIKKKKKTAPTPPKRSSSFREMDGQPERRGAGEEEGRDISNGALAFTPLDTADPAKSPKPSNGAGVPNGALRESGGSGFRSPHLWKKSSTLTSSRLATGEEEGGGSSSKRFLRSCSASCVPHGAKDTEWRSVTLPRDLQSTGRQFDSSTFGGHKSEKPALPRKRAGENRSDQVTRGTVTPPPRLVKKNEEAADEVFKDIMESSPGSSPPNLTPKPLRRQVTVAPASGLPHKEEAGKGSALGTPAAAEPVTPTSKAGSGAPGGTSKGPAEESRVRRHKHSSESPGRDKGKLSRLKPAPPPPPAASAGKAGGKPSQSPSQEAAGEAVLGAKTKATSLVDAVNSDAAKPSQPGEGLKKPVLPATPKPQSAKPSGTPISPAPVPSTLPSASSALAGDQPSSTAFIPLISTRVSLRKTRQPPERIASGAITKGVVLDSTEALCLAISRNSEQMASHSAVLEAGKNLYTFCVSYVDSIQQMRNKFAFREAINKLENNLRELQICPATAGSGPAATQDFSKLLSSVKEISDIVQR
Tyrosine-protein kinase Lck, sequence (P06239 whole entry): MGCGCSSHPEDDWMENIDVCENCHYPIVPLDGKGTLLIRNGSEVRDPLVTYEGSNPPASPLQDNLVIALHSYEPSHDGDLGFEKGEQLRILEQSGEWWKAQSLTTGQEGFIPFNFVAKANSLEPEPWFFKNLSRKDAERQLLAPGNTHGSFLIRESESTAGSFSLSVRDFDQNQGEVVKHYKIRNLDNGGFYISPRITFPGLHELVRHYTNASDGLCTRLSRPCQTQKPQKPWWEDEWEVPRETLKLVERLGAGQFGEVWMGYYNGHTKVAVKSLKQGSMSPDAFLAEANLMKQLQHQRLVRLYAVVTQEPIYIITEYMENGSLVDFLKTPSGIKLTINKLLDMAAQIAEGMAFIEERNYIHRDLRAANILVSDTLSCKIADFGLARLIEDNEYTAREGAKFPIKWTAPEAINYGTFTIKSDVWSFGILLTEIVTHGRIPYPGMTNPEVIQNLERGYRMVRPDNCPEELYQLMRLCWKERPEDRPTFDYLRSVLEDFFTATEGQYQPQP
Tyrosine-protein kinase Yes (Homo sapiens), sequence (P07947 2-543 limits assumed): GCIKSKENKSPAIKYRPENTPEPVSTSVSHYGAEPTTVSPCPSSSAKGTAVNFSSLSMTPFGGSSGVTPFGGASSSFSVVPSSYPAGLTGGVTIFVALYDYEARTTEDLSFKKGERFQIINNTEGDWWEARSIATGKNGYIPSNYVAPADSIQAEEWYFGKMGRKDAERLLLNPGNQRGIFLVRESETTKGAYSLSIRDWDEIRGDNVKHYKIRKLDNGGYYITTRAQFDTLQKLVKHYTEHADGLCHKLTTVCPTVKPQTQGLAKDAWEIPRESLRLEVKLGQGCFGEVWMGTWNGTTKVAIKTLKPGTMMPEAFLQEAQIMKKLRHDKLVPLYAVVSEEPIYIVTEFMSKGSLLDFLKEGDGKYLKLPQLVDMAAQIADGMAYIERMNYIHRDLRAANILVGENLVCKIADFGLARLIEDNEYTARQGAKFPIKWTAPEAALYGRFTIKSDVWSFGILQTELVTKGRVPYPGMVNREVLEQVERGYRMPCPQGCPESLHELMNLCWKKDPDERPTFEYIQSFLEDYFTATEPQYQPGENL
Vascular endothelial growth factor receptor 2 (Homo sapiens), sequence (P35968 whole entry, canonical isoform): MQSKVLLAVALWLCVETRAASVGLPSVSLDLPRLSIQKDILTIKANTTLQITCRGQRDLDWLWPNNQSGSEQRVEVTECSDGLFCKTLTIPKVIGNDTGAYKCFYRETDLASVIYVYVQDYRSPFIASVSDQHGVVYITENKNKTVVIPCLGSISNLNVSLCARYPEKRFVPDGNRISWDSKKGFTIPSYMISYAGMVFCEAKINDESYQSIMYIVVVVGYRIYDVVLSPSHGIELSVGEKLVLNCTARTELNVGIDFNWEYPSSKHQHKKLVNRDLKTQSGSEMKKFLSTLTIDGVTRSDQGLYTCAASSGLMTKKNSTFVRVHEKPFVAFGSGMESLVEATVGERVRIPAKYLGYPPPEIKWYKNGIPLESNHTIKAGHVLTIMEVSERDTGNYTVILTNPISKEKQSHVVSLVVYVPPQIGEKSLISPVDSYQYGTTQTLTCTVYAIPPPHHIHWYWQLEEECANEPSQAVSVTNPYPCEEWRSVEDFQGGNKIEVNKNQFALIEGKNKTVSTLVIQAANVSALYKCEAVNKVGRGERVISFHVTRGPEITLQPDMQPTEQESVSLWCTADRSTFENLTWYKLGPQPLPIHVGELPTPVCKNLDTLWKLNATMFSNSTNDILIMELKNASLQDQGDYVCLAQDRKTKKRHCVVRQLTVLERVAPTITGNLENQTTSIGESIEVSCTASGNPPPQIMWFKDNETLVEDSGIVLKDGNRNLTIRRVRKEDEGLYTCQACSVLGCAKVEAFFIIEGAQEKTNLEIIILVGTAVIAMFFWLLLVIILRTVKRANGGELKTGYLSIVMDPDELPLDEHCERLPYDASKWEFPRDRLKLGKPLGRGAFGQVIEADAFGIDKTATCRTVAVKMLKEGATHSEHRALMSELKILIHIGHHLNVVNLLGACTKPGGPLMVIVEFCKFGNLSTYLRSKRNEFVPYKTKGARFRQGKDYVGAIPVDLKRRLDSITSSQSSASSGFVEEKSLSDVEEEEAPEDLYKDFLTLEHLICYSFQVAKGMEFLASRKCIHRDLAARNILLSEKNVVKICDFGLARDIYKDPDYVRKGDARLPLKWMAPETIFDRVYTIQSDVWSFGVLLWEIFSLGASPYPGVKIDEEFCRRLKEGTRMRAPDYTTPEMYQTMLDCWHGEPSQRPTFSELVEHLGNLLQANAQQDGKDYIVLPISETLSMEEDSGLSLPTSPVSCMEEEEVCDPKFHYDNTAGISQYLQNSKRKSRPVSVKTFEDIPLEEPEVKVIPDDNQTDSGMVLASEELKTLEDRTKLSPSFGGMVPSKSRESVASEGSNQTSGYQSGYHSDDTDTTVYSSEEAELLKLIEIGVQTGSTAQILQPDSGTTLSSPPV
Casein kinase I isoform alpha (Homo sapiens), sequence (P48729 2-337 limits assumed): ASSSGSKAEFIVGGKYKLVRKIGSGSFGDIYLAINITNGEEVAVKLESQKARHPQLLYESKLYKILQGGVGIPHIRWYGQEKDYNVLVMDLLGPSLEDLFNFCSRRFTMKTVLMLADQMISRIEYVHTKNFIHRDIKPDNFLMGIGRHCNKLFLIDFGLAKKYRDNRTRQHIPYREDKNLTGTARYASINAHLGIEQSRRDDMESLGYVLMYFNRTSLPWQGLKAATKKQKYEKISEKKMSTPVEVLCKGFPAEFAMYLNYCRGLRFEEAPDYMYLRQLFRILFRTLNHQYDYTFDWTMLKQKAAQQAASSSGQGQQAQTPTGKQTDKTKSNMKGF
Serine/threonine-protein kinase PAK 4 (Homo sapiens), sequence (O96013 whole entry, looked up): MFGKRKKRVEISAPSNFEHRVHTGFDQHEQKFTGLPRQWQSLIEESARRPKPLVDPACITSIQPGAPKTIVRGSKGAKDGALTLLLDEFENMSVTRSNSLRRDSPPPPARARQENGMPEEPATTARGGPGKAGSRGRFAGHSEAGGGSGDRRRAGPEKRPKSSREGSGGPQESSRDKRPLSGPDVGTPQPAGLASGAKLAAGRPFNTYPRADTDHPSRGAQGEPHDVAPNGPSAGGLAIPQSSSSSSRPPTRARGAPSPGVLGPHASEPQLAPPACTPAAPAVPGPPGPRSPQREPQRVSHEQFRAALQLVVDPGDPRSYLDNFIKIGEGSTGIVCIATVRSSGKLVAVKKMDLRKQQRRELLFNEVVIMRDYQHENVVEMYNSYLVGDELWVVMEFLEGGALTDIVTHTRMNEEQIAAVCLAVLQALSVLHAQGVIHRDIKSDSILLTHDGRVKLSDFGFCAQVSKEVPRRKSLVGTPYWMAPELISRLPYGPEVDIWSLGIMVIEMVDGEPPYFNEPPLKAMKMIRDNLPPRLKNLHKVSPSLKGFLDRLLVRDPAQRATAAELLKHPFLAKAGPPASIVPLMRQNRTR

Consider `CN(C)Cc1cccc([C@H]2C[C@@H]2C(=O)Nc2nc3ccc(-c4cn[nH]c4)cc3s2)c1` (racemic), for which the logD (as a rule, the decadic logarithm of the distribution of all forms, ionised or not, between an organic phase and buffer at a given pH) in data set [1] is 2.8. In addition, the solubility (as a rule, how much of the substance goes into solution per volume) in [2] stood at 11 µM (≈ 4.59 µg/mL).
Consider `COc1ccc([C@H]2C[C@@H]2C(=O)Nc2nc3ccc(OC)cc3s2)cc1` (racemic), for which, in data set [2], the concentration in solution (solubility) was 11 µM (≈ 3.9 µg/mL).
Regarding `CN(C)Cc1ccc(C2CC2C(=O)Nc2nc3ccc(-c4cn[nH]c4)cc3s2)cc1` (racemic), in data set [1], the logD was 3. The Ki (as a rule, a measure of affinity in units of concentration, obtained from inhibition or displacement) is 46 nM in data set [3] and 0.6 nM in [5]. Further, in [2], the solubility was below 1 µM. The IC50 (in general, the concentration needed to halve the response being measured) in data set [4] stood at 89 nM.
In the case of `CCN(CC)Cc1cc([C@H]2C[C@@H]2C(=O)Nc2nc3ccc(-c4cn[nH]c4)cc3s2)ccc1OC`, the logD in [1] is 2.6. The amount in solution in data set [2] (solubility) came to 180 µM (≈ 85.6 µg/mL).
In the same order, the values of `CN(C)Cc1ccc([C@H]2C[C@@H]2C(=O)Nc2nc3ccc(-c4cccnc4)cc3s2)cc1` (racemic) are 2.7 and below 1 µM.
For the compound `COc1ccc([C@H]2C[C@@H]2C(=O)Nc2nc3ccc(-c4cncc(CO)c4)cc3s2)cc1` (racemic), the inhibition in data set [6], in [7] and in data set [8] was above 50% throughout. The IC50 in data set [4] is above 20000 nM. This compound returned a Ki in data set [5] of 5.3 nM.
The compound `COc1ccc(C2CC2C(=O)Nc2nc3ccc(-c4cn[nH]c4)cc3s2)cc1` (racemic) displayed a logD in data set [1] of 4.4. The compound further displayed a solubility in [2] below 1 µM.
`COc1ccc2nc(NC(=O)[C@H]3C[C@@H]3c3ccccc3)sc2c1` (racemic) yielded a solubility in data set [2] below 2 µM.
As for `CN(C)Cc1ccc([C@H]2C[C@@H]2C(=O)Nc2nc3ccc(-c4cn[nH]c4)cc3s2)cc1`, the Vd in data set [9] came to 3.2 L/kg. Moreover, the inhibition in data set [10], in data set [11], in [12], in data set [13], in data set [14] and in data set [15] was above 50% each time. Further, the inhibition in data set [16] and in data set [17] was above 50% in each case. For the same compound, the half-life (in general, the time in which the quantity being followed falls by half) in data set [18] is 3 h; in data set [19], 3.4 h. In addition, the clearance – broadly, a measure of how efficiently the substance is removed, as volume per time – in data set [20] is 12 mL/min/kg. The bioavailability (usually the share of a dose that reaches the circulation, judged against a reference dose that is usually intravenous) in data set [21] is 35%. Further, the AUC(0-t) (in general, exposure summed from dosing to a finite time, without extrapolation to infinity) worked out at 4.8 µM·h in [22] and 2.8 µM·h in data set [23]. Moreover, the logD in [1] was 3. The results for the Ki in data set [3] and in data set [5] were 55 nM and 0.7 nM, respectively. Further, the solubility in [2] is below 1 µM. Besides, in data set [4], the IC50 was determined as 91 nM.
Regarding `COc1ccc([C@H]2C[C@@H]2C(=O)Nc2nc3ccc(-c4cn[nH]c4)cc3s2)cc1`, in [1], the logD turned out to be 4.4. The same compound displayed a solubility in data set [2] below 1 µM.
